From patent publication US20060104944A1, “Activators and inhibitors of protease activated receptor2 (PAR2) and methods of use” (priority 2004, published 2006)
No end group written: not given here. *: point of attachment. tc = trans-cinnamoyl N-cap, O=C(/C=C/c1ccccc1)*; code O = not defined here

How the values were obtained:
[1] = tested on: chick chorioallantoic membrane (CAM); test: Neovascularization in the chick chorioallantoic membrane (CAM) model; assay type: in vivo; details: Table 5; for Mean % Inhibition ± SEM: inhibition of PAR-2 (SEQ ID NO: 3, 0.3 ug/ml) stimulated angiogenesis, inhibitor doses as E12
[2] = tested on: chick chorioallantoic membrane (CAM); test: as above; assay type: in vivo; details: for PAR2-induced angiogenesis in the CAM model: in words, FIG. 3, Table 5; for Branch Points ± SEM: Table 3, agent alone: FGF2 1 ug/ml, VEGF 2 ug/ml, PAR-1 3 ug, PAR-2 0.3 ug, n = 8; for Mean Number of Branch Points ± SD: Table 4, agent alone: FGF2 1.0 μg, PAR2 agonist 5.0 μg, TF/factor VIIa, N = 16
Procedure: In vivo neovascularization was examined by the method previously described by Auerbach et al. (Auerbach et al., J. Dev. Biol., 41:391-394 (1974), which is hereby incorporated by reference in its entirety). Ten-day old embryos were purchased from Spafas, Inc. (Preston, Conn.) and were incubated at 37° C. with 55% relative humidity. In the dark with the help of a candling lamp, a small hole was punctured in the shell concealing the air sac with a hypodermic needle. A second hole was punctured in the shell on the broadside of the egg directly over an avascular portion of the embryonic membrane, as observed during candling. A false air sac was created beneath the second hole by the application of negative pressure to the first hole, which caused the chorioallantoic membrane (CAM) to separate from the shell. A window, approximately 1.0 cm^2, was cut in the shell over the dropped CAM with the use of a small crafts grinding wheel (Dremel, Division of Emerson Electric Company Racine, Wisconsin) which allowed direct access to the underlying CAM. Filter disks of #1 filter paper (Whatman International, United Kingdom) were soaked in 3 mg/ml cortisone acetate (Sigma, St. Louis, Mo.) in a solution of 95% ethanol and water and subsequently air dried under sterile conditions. FGF2 (Life Technologies, Gaithersburg, Md.) was used to grow vessels on the CAMs of 10 day old chick embryos. Sterile filter disks adsorbed with FGF2 dissolved in PBS at 1 μg/ml were placed on growing CAMs. […] At 24 h, test compounds or control vehicle was added directly to CAM topically.
CAM tissue directly beneath FGF2-saturated filter disk was resected from embryos treated 48 hours prior with test compound or control. Tissues were washed three times with PBS. Sections were placed in a 35-mm petri dish (Nalge Nunc, Rochester, N.Y.) and examined under a SV6 stereomicroscope (Karl Zeiss, Thornwood, N.Y.) at 50× magnification. Digital images of CAM sections adjacent to filters were collected using a 3-CCD color video camera system (Toshiba America, New York, N.Y.) and analyzed using Image-Pro Plus software (Media Cybernetics, Silver Spring, Md.).
CAM tissue directly beneath FGF2-saturated filter disk was resected from embryos treated 48 h prior with compound or control. Tissues were washed three times with PBS. Sections were placed in a 35-mm petri dish (Nalge Nunc, Rochester, N.Y.) and examined under a SV6 stereomicroscope (Karl Zeiss, Thornwood, N.Y.) at 50× magnification. Digital images of CAM sections adjacent to filters were collected using a 3-CCD color video camera system (Toshiba America, New York, N.Y.) and analyzed with the Image-Pro Plus software (Media Cybernetics, Silver Spring, Md.).

[3] = target: T1, PAR-1 (Homo sapiens, UniProt P25116); details: PAR-1 antagonist, variety of bioassays; cited from earlier work
T1 sequence (P25116 22-425): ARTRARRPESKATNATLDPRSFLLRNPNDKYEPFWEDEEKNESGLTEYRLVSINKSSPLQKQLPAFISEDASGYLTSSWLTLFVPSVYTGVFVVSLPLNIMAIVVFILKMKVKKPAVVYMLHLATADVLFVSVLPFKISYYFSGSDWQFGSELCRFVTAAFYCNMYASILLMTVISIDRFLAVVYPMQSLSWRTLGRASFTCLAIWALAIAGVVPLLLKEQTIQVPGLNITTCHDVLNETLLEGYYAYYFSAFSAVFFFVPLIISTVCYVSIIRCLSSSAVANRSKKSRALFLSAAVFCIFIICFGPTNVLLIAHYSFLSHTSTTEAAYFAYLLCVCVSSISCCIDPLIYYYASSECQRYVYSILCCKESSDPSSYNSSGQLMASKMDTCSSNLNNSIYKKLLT

[4] = target: T2, PAR-2 (Homo sapiens, UniProt P55085); details: in words; cited from earlier work
T2 sequence (P55085 26-397): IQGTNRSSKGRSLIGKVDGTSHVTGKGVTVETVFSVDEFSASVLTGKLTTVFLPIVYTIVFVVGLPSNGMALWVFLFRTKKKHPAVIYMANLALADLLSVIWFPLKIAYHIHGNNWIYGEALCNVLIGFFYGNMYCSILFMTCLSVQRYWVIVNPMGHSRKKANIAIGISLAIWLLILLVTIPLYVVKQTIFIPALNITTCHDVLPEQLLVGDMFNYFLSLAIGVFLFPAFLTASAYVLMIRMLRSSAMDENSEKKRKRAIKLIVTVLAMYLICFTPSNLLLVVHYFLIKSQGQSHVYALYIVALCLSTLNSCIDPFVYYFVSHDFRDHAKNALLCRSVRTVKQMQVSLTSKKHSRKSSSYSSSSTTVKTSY

[5] = tested on: Human umbilical vein endothelial cells (HUVEC); test: Endothelial cell tube formation on Matrigel; assay type: cell-based; details: agent alone; FGF2 0.1 μg, PAR2 agonist 0.25 μg; n = 3
Procedure: Differentiation by endothelial cells was examined using a method developed by Grant et al. (Grant et al., In Vitro Cell Dev. Biol., 27A:327-336 (1991), which is hereby incorporated by reference in its entirety). Matrigel® matrix, phenol-red free (commercially available from Becton Dickinson, Bedford, Mass.) was thawed overnight at 4° C. Using cold pipette tips, 3.0 mg/well of Matrigel® matrix was placed in a cold twenty-four-multiwell plate (Falcon). Matrigel® matrix was allowed to polymerize during incubation at 37° C. for 30 minutes.
Human umbilical vein endothelial cells (HUVEC) were maintained at 37° C. with 5% CO2 and 95% humidity in endothelial cell growth medium with 2% fetal bovine serum (EGM). The tube assay was performed in endothelial cell basal medium (EBM) supplemented with 0.5% bovine serum albumin (BSA) and 1:100 diluted Insulin-Transferrin-Selenium-G supplement (I-T-Se, 100×). HUVEC were trypsinized, centrifuged, and, subsequently, washed twice in phosphate buffered saline (PBS). […] Digital images of micro-titer well sections were collected using a DKC5000 3-CCD color video camera system (Toshiba America, New York, N.Y.) and analyzed using Image-Pro Plus software (Media Cybernetics, Silver Spring, Md.). The area and major axis length of stained cells having a tubular morphology was measured on the Matrigel® matrix surface (Becton Dickinson, Bedford, Pa.).

[6] = target: T1, PAR-1; details: at PAR-1; in words; cited from earlier work
[7] = tested on: rat aorta; details: in words; cited from earlier work
[8] = tested on: Human dermal micro-vascular endothelial cells (HDMEC); test: In vitro 3D sprout angiogenesis (vessel tube length) assay; assay type: cell-based; details: agent alone, 1 ug
Procedure: Culture of HDMEC on micro-carrier beads: 80% confluent HDMEC (Passage 5-10) were mixed with gelatin-coated Cytodex-3 beads with a ratio of 40 cells per bead. Suspend cells and beads (150-200 beads per well for 24-well plate) with 5 ml EBM+15% normal human serum, mix gently every one hour for first four hours, then leave the mixture culture in CO2 incubator overnight. The next morning, add 10 ml of fresh EBM+15% HS and culture for another three hours. Before experiments, check the culture of EC-beads. Add 500 μl of PBS in a well of 24-well plate, take 100 ul of the EC-bead culture solution, and add it to the PBS, observe and count the number of beads, calculate the concentration of EC-beads. The EC-beads are good for experiments for 48 hours.
Prepare fibrinogen solution (1 mg/ml) in EBM medium with or without angiogenesis factors or testing factors. For positive control, use 30 ng/ml VEGF+25 ng/ml FGF2. Wash EC-beads with EBM medium for two times and add EC-beads to fibrinogen solution. For each condition, do experiment in triplicates. Mix the EC-beads in fibrinogen solution gently and add 2.5 μl human thrombin (0.05 U/μl) in 1 ml fibrinogen solution, immediately transfer 300 ul to each well of 24-well plate. The fibrinogen solution will polymerize in 5-10 minutes, after 20 minutes, add EBM+20% normal human serum+10 μg/ml Aprotinin. Incubate the plate in CO2 incubator. […]

[9] = target: T2, PAR-2; details: at PAR-2; in words; cited from earlier work
[10] = tested on: isolated blood vessel preparations; details: in words, cited from earlier work
[11] = PAR-2 (SEQ ID NO: 3, 0.3 ug/ml) + inhibitor: XT199 10 ug, anti-VII/VIIa 3 ug, PD98059 5 ug, Hirudin 1 U, PAR-2 mAb 3 ug, anti-TF mAb 2 ug

## COc1cccc(-c2cc(=O)c3ccccc3o2)c1N [PD98059]
[1]; [11]
  Mean Branch points ± SEM: 102 ± 9
[1]
  Mean % Inhibition ± SEM: 88 ± 12%
[2]
  PAR2-induced angiogenesis in the CAM model: blocked

## NCC[C@H](NC(=O)[C@H](Cc1ccc(F)c(F)c1)NC(=O)Nc1ccc2c(CN3CCCC3)cn(Cc3c(Cl)cccc3Cl)c2c1)C(=O)NCc1ccccc1 [RWJ-56110]
[3]
  IC50: 100 to 500 nM
[4]
  activity as a PAR-2 antagonist: inactive

## FGF2: human fibroblast growth factor basic
[5]
  Mean Endothelial tube length (mm) ± SD: 64 ± 5 mm
[2]; 1 μg of FGF2
  increase in angiogenesis index: 2-3 fold
[2]
  Branch Points ± SEM: 182 ± 11
  Mean Number of Branch Points ± SD: 198 ± 14

## FSLLRY [FSLLRY-NH2, PAR2 antagonist]
[6]
  agonistic activity: lack agonistic activity
[7]
  trypsin relaxant activity: antagonize

## HOOC-L-I-G-R-L-O-NH2 (LIGRL-{code O-NH2}; reading uncertain; also: 'HOOC-' written at N-terminus) [SEQ ID NO: 3]
[1]; PAR-2 agonist alone, 0.3 ug/ml, n = 8
  Mean Branch points ± SEM: 176 ± 14
[1]; PAR-2 agonist alone, 0.3 ug/ml, n = 8, listed as PAR-2
  Mean Branch points ± SEM: 186 ± 17

## HOOC-S-L-I-G-K-V-NH2 (SLIGKV-NH2; also: 'HOOC-' written at N-terminus) [SEQ ID NO: 5]
[8]
  Vessel Length(mm) ± SEM: 1.39 ± 0.28 mm
[2]
  Branch Points ± SEM: 197 ± 15
  Mean Number of Branch Points ± SD: 205 ± 8

## HOOC-S-L-I-G-R-L-NH2 (SLIGRL-NH2; also: 'HOOC-' written at N-terminus) [SEQ ID NO: 4]
[5]
  Mean Endothelial tube length (mm) ± SD: 58 ± 4 mm

## Hirudin
[1]; [11]
  Mean Branch points ± SEM: 174 ± 9
[1]
  Mean % Inhibition ± SEM: 3 ± 8%
[2]
  PAR2-induced angiogenesis in the CAM model: not

## LSIGRL [LSIGRL-NH2, PAR2 antagonist]
[9]
  agonistic activity: lack agonistic activity

## TFLLRN [SEQ ID NO: 6, PAR1 agonist peptide used for comparison]
[8]
  Vessel Length(mm) ± SEM: 0.88 ± 0.08 mm
[2]
  Branch Points ± SEM: 101 ± 7

## VEGF
[2]
  Branch Points ± SEM: 168 ± 10

## tc-LIGRLO (tc-LIGRL-{code O}; reading uncertain; also: printed as tc-LIGRLO)
[10]; compared with SLIGRL
  activity in the relaxation assay: equally active
[10]
  contraction: does not cause contraction
